Patent US8501806B2, “Methods for preventing or reducing colon carcinogenesis” (Nogra Pharma Limited, priority 2008, dated 2013)

Legend:
[1] = test system: established CT26-derived tumors; assay: Growth of established CT26 xenografts; type: in vivo, Balb/c mice; details: subcutaneously 80 mg/kg mouse/day for 2 weeks from day 14
Description: CT26 cells (1×10^5 cells in 300 μl PBS 1×) were injected subcutaneously into the flank of Balb/c mice, whose fur was shaved and depilated. Five groups of 10 mice each were implanted with CT26. The first group received daily subcutaneously 300 μl PBS (control), the remaining groups received daily subcutaneously compound 14 at a final dose of 1, 4, 8, or 12 mg/kg/mouse dissolved in 300 μl PBS. Both compound 14 and PBS were administered starting on day 3. Further experimentation was performed to assess whether compound 14 had anti-cancer activity when administered systemically. […] Mice were monitored over the time for weight loss. After 2 weeks, mice were sacrificed, tumors were photographed, then excised and their mass calculated according to the following formula: ½×(short diameter)×(long diameter)×(height). Total extracts were prepared from xenografts and analyzed for cyclin D1 protein content by Western blotting using a commercially available antibody (Santa Cruz Biotechnology). […] After 2 weeks, mice with similar tumor size, determined by caliper measurements, were divided into three groups of 8 mice each. […] Mice were monitored over the time for weight loss. After 2 weeks, mice were sacrificed, tumors were photographed, then excised and their mass calculated as described above. […] Mice were monitored over the time and sacrificed at day 28.

HCT-116 cells = assay: CFSE cell proliferation assay, HCT-116 cells; type: cell-based, human; details: equivalent concentrations; data not shown
Description: All reagents used in Examples 1-3 were from Sigma-Aldrich (Milan, Italy) unless specified. Compounds were dissolved as a 25 mM stock solution in culture medium, and the pH of the solution was adjusted to 7.4, if necessary, with NaOH. The human CRC cell lines, HCT-116 and HT-29 (expressing either wild-type or mutated p53 respectively), were maintained in McCoy's 5A supplemented with 10% fetal bovine serum (FBS), 1% penicillin/streptomycin, and 50 μg/ml gentamycin. The murine CRC cell line, CT26, was maintained in RPMI 1640 medium supplemented with 10% FBS and 1% penicillin/streptomycin.
For cell growth assays, serum-starved HCT-116, HT-29, and CT26 cells were plated in appropriate complete medium at 2×10^5 cells/ml/well in 6-well culture dishes and allowed to adhere overnight. Cells were then labeled with carboxyfluorescein diacetate succinimidyl ester (CFSE) (Invitrogen, Milan Italy) at 37° C. according to the manufacturer's instruction. After 30 minutes, the medium was removed and fresh media containing 0.05% bovine serum albumin (BSA), and increasing doses of 5-ASA or disclosed compounds were added. After 24 hours, cells were collected, washed twice with PBS 1×, and then incubated with 5 μg/ml of PI for 15 minutes, at 4° C. in the dark. CFSE and/or PI-positive cells were determined by flow cytometry (Becton Dickinson, FACSCalibur, Milan, Italy). To determine whether the negative effect of compound 14 (2-methoxy-5-amino-N-hydroxybenzamide) on proliferation was reversible, cells were cultured in the presence or absence of compound 14 (1.5 and 3 mM) for 24 hours (1st culture). Afterwards, cells were either left untreated or extensively washed and cultured with medium in the absence of compound 14 for additional 24 hours (2nd culture). The percentage of proliferating cells was then evaluated by flow cytometry.

Structure (SMILES) | tumor size of established CT26-derived tumors vs PBS [1] | effect on cell proliferation (osmotic control) (HCT-116 cells)
Nc1ccc(O)c(C(=O)O)c1 [5-ASA, 5-amino salicylic acid, reference compound] | not 5-ASA significantly reduced | 
OC[C@@H](O)[C@@H](O)[C@H](O)[C@H](O)CO [mannitol, reference compound] |  | No effect
